US8337809B2, “Charge-assembled capsules for phototherapy” (William Marsh Rice University, priority 2006, dated 2012)

Tests used:
[1] = Laser-induced photothermal experiments (808 nm NIR diode laser)
Description: (§1) Washed ICG-NACs (0.5 mL, ˜1×10^7 particles/mL, ˜1×10^9 ICG molecules/particles, 0.007 wt % ICG of suspension) were suspended in PBS solution and placed in the wells of a 24 well polystyrene culture dish. Control samples were a 0.007 wt % PBS solution of ICG and PBS solution. Containing 0.5 mL of aqueous suspension or solution, each well was irradiated with a continuous-wave near-infrared diode laser (Coherent FAP-System, 54 W, λ=808 nm, irradiance (Io)) 155 W/cm^2) for various time intervals. The laser beam impinged on the sample with a 6.66 mm diameter. During irradiation, the sample temperature was monitored with a K-type thermocouple (bead diameter) 0.003 in., Omega Engineering) located 1 mm outside the laser spot and recorded using LabVIEW data acquisition software (National Instruments, Austin, Tex.). For the SEM study, 5 identical batches were prepared and irradiated for various times. Each sample was then washed twice with Nanopure water and dried at room temperature for SEM imaging. Viability Assessment of Cells Exposed to ICG-NACs. […] Cell survival was quantified using the Live/Dead viability assay (Molecular Probes). Dead cells were differentiated from live cells through fluorescence microscopy, as the former emitted red fluorescence (from the ethidium homodimer-1 dye precursor) and the latter emitted green fluorescence (from the calcein acetoxymethyl ester dye precursor). […]

animal subjects = conditions: cited from earlier work
[2] = ICG leakage measurements / thermal degradation in PBS; type: physicochemical; conditions: 37° C.
Description: The synthesis of ICG-NACs with ICG/PAH=0.04 was scaled up by 10 times. After washing with PBS solution, the precipitate was dispersed in PBS solution (2.6 mL) and split into 0.25 mL aliquots kept under constant shaking in the dark at either 23 or 37° C. Because of the long time scale of this study and the sensitivity of ICG to degradation in water, the suspension fluid was not analyzed for released ICG. Instead, the ICG contained within the ICG-NACs was quantified by inducing the disassembly of the ICG-NACs and immediately measuring the ICG concentration. Specifically, after a given aging time, each aliquot was centrifuged for 30 min and the concentrated precipitate suspension ([…]) was combined with 2.5 mL HNO3 solution (2 wt %). The resulting clear solution was then analyzed through UV-vis spectroscopy. As control samples, fresh ICG solution in PBS was prepared with a concentration close to that of the disassembled NAC solution (˜0.04 mg/mL) and incubated at 23 and 37° C. The samples were kept in the dark during aging.
The ICG content of ICG-NACs (ICG/amine ratio=0.04) was quantified as a function of time by dis-assembling the capsules and measuring the absorbance of free ICG concentration at 780 nm (FIG. 9). For ICG-NACs at 23° C., more than 96% of ICG was retained. […]

[3] = test system: fibroblasts (rat maxillary incisor pulp cells (RPC-C2A)); test: Viability assessment of cells exposed to ICG-NACs (Live/Dead viability assay); type: cell-based
Description: as §1

[4] = ICG concentration 0.001 mg/ml at 42° C.; cited from earlier work
[5] = cited from earlier work

CC1(C)C(/C=C/C=C/C=C/C=C2\N(CCCCS(=O)(=O)O)c3ccc4ccccc4c3C2(C)C)=[N+](CCCCS(=O)(=O)[O-])c2ccc3ccccc3c21 [ICG, indocyanine green]
photothermal heating response ([1]; constant 808 nm irradiation, compared with ICG-NACs): very similar heating curve
irradiation/cooling cycles in which the target temperature was reached ([1]; irradiated to ~51-54° C. (ICG-NACs 55° C.), cooled to 30° C., repeated, photodegradation stability): 4 cycles
semilethal dose LD50 (animal subjects): 50 to 80 mg/kg
ICG lost at the end of 8 hr ([2]; PBS, dark, capsules ICG/amine ratio=0.04, free ICG ~0.04 mg/mL): ~35%
half-life ([2]; ICG solution in PBS, free ICG in PBS, calculated): 19 h
toxicity to fibroblast cells [3]: non-toxic
published half-life of ICG [4]: ~10 h
half-life of rapid clearance from the circulatory system ([5]; initial fast phase): 3 to 4 min
half-life of much slower clearance rate ([5]; second, slower phase): ≥ 1 h
